# Data: patent publication US10576059B2, “Substituted phenylpyrrolecarboxamides with therapeutic activity in HIV” (New York Blood Center, Inc., priority 2014, dated 2020)
# Where two headings read alike, the source gives them in different places.
# What was measured:
# HIV-1 Integrase = biological target: T1, HIV-1 Integrase (Human immunodeficiency virus type 1 group M subtype B, UniProt P04585); test: HIV-1 Integrase Assay; format: biochemical; conditions: HIV-1 Integrase Assay Kit from ExpressBio
# T1 construct: HIV-1 Integrase Assay Kit from ExpressBio; purchased ExpressBio (Thurnmont, Md.)
# Experimental: HIV-1 Integrase was performed as per the protocol in the HIV-1 Integrase Assay Kit from ExpressBio (Thurnmont, Md.). (See Table 3)
# [1] = system: cell-to-cell fusion mediated by HIV-1 (HIV-1HXB2 Env); test: microbe, parasite or virus in culture; format: cell-based; conditions: Human immunodeficiency virus 1; MAGI-CCR5 and HL 2/3 cells, 24 h, β-gal readout
# Experimental: To assess the ability of NBD-compounds to block cell-to-cell fusion mediated by HIV-1 we performed cell fusion assay as previously described 3^1-3 with some modifications. […] Following fusion of the two cell lines Tat induce the expression of β-gal enzyme. […] The percent inhibition and the IC50 values were calculated using the GraphPad Prism software.
# [2] = system: panel of HIV-1 ENV-pseudoviruses (subtype A, A/D, A2/D, A/E, A/G, B, C and D); test: microbe, parasite or virus in culture; format: cell-based
# PBMC = test: Cytotoxicity in PBMC (XTT); format: cell-based; conditions: 7 days
# Experimental: For the PBMC toxicity assay we used 5×10^5 cells/ml and the cytotoxicity of the compounds was measured after 7 days of incubation as previously reported^8. Following the addition of XTT the soluble intracellular formazan was quantitated colorimetrically at 450 nm 4 h later. The percent of cytotoxicity and the CC50 values were calculated as above. (See Table 4)
# [3] = system: laboratory-adapted HIV-1 strains; test: microbe, parasite or virus in culture; format: cell-based
# [4] = system: lab-adapted and primary HIV-1 isolates; test: microbe, parasite or virus in culture; conditions: Human immunodeficiency virus 1, PBMC
# Experimental: (§1) PBMCs were isolated from the blood of healthy donors at the New York Blood Center by standard density gradient centrifugation using Histopaque-1077 (Sigma-Aldrich). The cells were cultured at 37° C. for 2 hr. […] The PHA-stimulated cells (5×10^4 cells/well) were infected with lab-adapted and primary HIV-1 isolates at 500 TCID50 (0.01 MOI) in the absence or presence of inhibitors at graded concentrations. Culture media were replaced every 3 days with fresh media. The supernatants were collected 7 days post-infection and tested for p24 antigen by ELISA. The percent inhibition of p24 production and IC50 values were calculated by the GraphPad Prism software.
# MT-2 cells = test: Cytotoxicity in MT-2 cells (XTT); format: cell-based; conditions: 4 days
# Experimental: Cytotoxicity of test compounds in MT-2 cells was measured a by colorimetric method using XTT [(sodium 3′-(1-(phenylamino)-carbonyl)-3,4-tetrazolium-bis(4-methoxy-6-nitro) benzenesulfonic acid hydrate)] (PolySciences) as previously described^7. Briefly, 100 μl of a test compound at graded concentrations was added to an equal volume of cells (1×10^5 cells/ml) in 96 well plates followed by incubation at 37° C. for 4 days, which ran parallel to the neutralization assay in MT-2. Following the addition of XTT the soluble intracellular formazan was quantitated colorimetrically at 450 nm 4 h later. […] (See Table 4)
# [5] = system: lab-adapted and primary HIV-1 isolates; conditions: read-out: IC50 (μm); Laboratory strain BaL, subtype B, PBMC, co-receptor R5
# Experimental: as §1
# [6] = Human immunodeficiency virus 1, TZM-bl, read-out: IC50 (μM) ± S.D., subtype A, NIH # 11888, ENV QB726.70M.ENV.C4
# [7] = Human immunodeficiency virus 1, TZM-bl, read-out: IC50 (μM) ± S.D., subtype A/E (potential), NIH # 11603, ENV CRF01_AE clone 269
# [8] = Human immunodeficiency virus 1, TZM-bl, read-out: IC50 (μM) ± S.D., subtype A/G, NIH # 11605, ENV CRF02_AG clone 278
# [9] = Human immunodeficiency virus 1, TZM-bl, read-out: IC50 (μM) ± S.D., subtype A2/D, NIH # 11906, ENV QG393.60M.ENV.B7
# [10] = Human immunodeficiency virus 1, TZM-bl, read-out: IC50 (μM) ± S.D., subtype A, NIH # 11889, ENV QB726.70M.ENV.B3
# [11] = Human immunodeficiency virus 1, TZM-bl, read-out: IC50 (μM) ± S.D., subtype B, ENV B41
# [12] = Human immunodeficiency virus 1, TZM-bl, read-out: IC50 (μM) ± S.D., subtype B, NIH # 11018, ENV QH0692, clone 42
# [13] = Human immunodeficiency virus 1, TZM-bl, read-out: IC50 (μM) ± S.D., subtype B, NIH # 11022, ENV PVO, clone 4
# [14] = Human immunodeficiency virus 1, TZM-bl, read-out: IC50 (μM) ± S.D., subtype B, NIH # 11035, ENV pREJO4541 clone 67
# [15] = Human immunodeficiency virus 1, TZM-bl, read-out: IC50 (μM) ± S.D., subtype C, NIH # 11307, ENV Du172, clone 17
# [16] = Human immunodeficiency virus 1, TZM-bl, read-out: IC50 (μM) ± S.D., subtype C, NIH # 11311, ENV ZM233M.PB6
# [17] = Human immunodeficiency virus 1, TZM-bl, read-out: IC50 (μM) ± S.D., subtype C, NIH # 11313, ENV ZM53M.PB12
# [18] = Human immunodeficiency virus 1, TZM-bl, read-out: IC50 (μM) ± S.D., subtype D, NIH # 11918, ENV QD435.100M.ENV.E1
structure (smiles),measurement,setting,value
"Cc1nc(C(CN)NC(=O)c2ccc(-c3ccc(Cl)cc3)[nH]2)sc1CO (single isomer, unassigned) [Compound 39]",IC50,HIV-1 Integrase,> 100 µM
"Cc1nc(C(NC(=O)c2ccc(-c3ccc(Cl)cc3)[nH]2)C2CCCCN2)sc1CO (single isomer, unassigned) [Compound 19]",IC50,[1],7.6 µM
same,IC50,[2]; [6],1.5 ± 0.6 µM
same,IC50,[2]; [7],1.7 ± 0.9 µM
same,IC50,[2]; [8],1.8 ± 0.2 µM
same,IC50,"[2]; Human immunodeficiency virus 1, TZM-bl, read-out: IC50 (μM) ± S.D., subtype B, NIH # 11578, ENV pWEAUd15.410.5017",1.7 ± 0.03 µM
same,IC50,"[2]; Human immunodeficiency virus 1, TZM-bl, read-out: IC50 (μM) ± S.D., subtype C, NIH # 11310, ENV ZM214M.PL15",1.7 ± 0.6 µM
same,IC50,"[2]; Human immunodeficiency virus 1, TZM-bl, read-out: IC50 (μM) ± S.D., subtype C, NIH # 11314, ENV ZM109F.PB4",1.9 ± 0.3 µM
same,IC50,"[2]; Human immunodeficiency virus 1, TZM-bl, read-out: IC50 (μM) ± S.D., subtype D, NIH # 11912, ENV QA013.701.ENV.M12",1.7 ± 0.2 µM
same,IC50,"[2]; read-out: IC50 (μM) ± S.D., subtype A2/D, NIH # 11906, ENV QG393.60M.ENV.B7",1.4 ± 0.5 µM
same,IC50,"[2]; read-out: IC50 (μM) ± S.D., subtype A, NIH # 11890, ENV QF495.23M.ENV.A1",0.86 ± 0.4 µM
same,IC50,"[2]; read-out: IC50 (μM) ± S.D., subtype A, NIH # 11891, ENV QF495.23M.ENV.A3",1.3 ± 0.3 µM
same,IC50,"[2]; read-out: IC50 (μM) ± S.D., subtype A, NIH # 11892, ENV QF495.23M.ENV.B2",1.1 ± 0.2 µM
same,IC50,"[2]; read-out: IC50 (μM) ± S.D., subtype A/D, NIH # 11903, ENV QA790.2041.ENV.C8",1.6 ± 0.2 µM
same,IC50,"[2]; read-out: IC50 (μM) ± S.D., subtype B, ENV B41",1.1 ± 0.4 µM
same,IC50,"[2]; read-out: IC50 (μM) ± S.D., subtype B, NIH # 11018, ENV QH0692, clone 42",0.9 ± 0.3 µM
same,IC50,"[2]; read-out: IC50 (μM) ± S.D., subtype B, NIH # 11022, ENV PVO, clone 4",1.1 ± 0.2 µM
same,IC50,"[2]; read-out: IC50 (μM) ± S.D., subtype B, NIH # 11024, ENV AC10.0, clone 29",0.74 ± 0.25 µM
same,IC50,"[2]; read-out: IC50 (μM) ± S.D., subtype B, NIH # 11038, ENV pCAAN5342 clone A2",0.64 ± 0.01 µM
same,IC50,"[2]; subtype A, NIH # 11889, ENV QB726.70M.ENV.B3, read-out: IC50 (μM) ± S.D.",2.4 ± 0.9 µM
"Cc1nc(C(NC(=O)c2ccc(-c3ccc(Cl)cc3)[nH]2)C2CCCCN2)sc1CO (single isomer, unassigned) [Compound 17]",IC50,[1],10.8 µM
same,IC50,[2]; [9],0.8 ± 0.3 µM
same,IC50,"[2]; Human immunodeficiency virus 1, TZM-bl, read-out: IC50 (μM) ± S.D., subtype A, NIH # 11887, ENV Q259env.w6",1.6 ± 0.1 µM
same,IC50,[2]; [6],1.3 ± 0.3 µM
same,IC50,[2]; [10],1.3 ± 0.4 µM
same,IC50,"[2]; Human immunodeficiency virus 1, TZM-bl, read-out: IC50 (μM) ± S.D., subtype A, NIH # 11890, ENV QF495.23M.ENV.A1",1.3 ± 0.4 µM
same,IC50,"[2]; Human immunodeficiency virus 1, TZM-bl, read-out: IC50 (μM) ± S.D., subtype A, NIH # 11891, ENV QF495.23M.ENV.A3",0.88 ± 0.4 µM
same,IC50,"[2]; Human immunodeficiency virus 1, TZM-bl, read-out: IC50 (μM) ± S.D., subtype A, NIH # 11892, ENV QF495.23M.ENV.B2",0.6 ± 0.4 µM
same,IC50,"[2]; Human immunodeficiency virus 1, TZM-bl, read-out: IC50 (μM) ± S.D., subtype A/D, NIH # 11901, ENV QA790.2041.ENV.A4",1.4 ± 0.05 µM
same,IC50,"[2]; Human immunodeficiency virus 1, TZM-bl, read-out: IC50 (μM) ± S.D., subtype A/D, NIH # 11903, ENV QA790.2041.ENV.C8",1.6 ± 0.2 µM
same,IC50,[2]; [7],1.5 ± 0.3 µM
same,IC50,"[2]; Human immunodeficiency virus 1, TZM-bl, read-out: IC50 (μM) ± S.D., subtype A/G, NIH # 11601, ENV CRF02 AG clone 263",1.4 ± 0.3 µM
same,IC50,[2]; [8],1.3 ± 0.5 µM
same,IC50,[2]; [11],0.68 ± 0.1 µM
same,IC50,[2]; [12],0.52 ± 0.1 µM
same,IC50,[2]; [13],1.9 ± 0.1 µM
same,IC50,"[2]; Human immunodeficiency virus 1, TZM-bl, read-out: IC50 (μM) ± S.D., subtype B, NIH # 11033, ENV pWITO4160 clone 33",1.7 ± 0.1 µM
same,IC50,[2]; [14],1.6 ± 0.3 µM
same,IC50,"[2]; Human immunodeficiency virus 1, TZM-bl, read-out: IC50 (μM) ± S.D., subtype B, NIH # 11038, ENV pCAAN5342 clone A2",0.6 ± 0.07 µM
same,IC50,[2]; [15],1.9 ± 0.5 µM
same,IC50,[2]; [16],1.3 ± 0.1 µM
same,IC50,[2]; [17],1.5 ± 0.2 µM
same,IC50,"[2]; Human immunodeficiency virus 1, TZM-bl, read-out: IC50 (μM) ± S.D., subtype D, NIH # 11916, ENV QD435.100M.ENV.B5",1.7 ± 0.5 µM
same,IC50,[2]; [18],3.7 ± 0.1 µM
Cc1nc(C(NC(=O)c2ccc(-c3ccc(Cl)cc3)[nH]2)C2CCCCN2)sc1CO (centres unmarked) [Compound 15],CC50,PBMC,~36000 nM
same,IC50,"[3]; Human immunodeficiency virus 1, MT2, read-out: IC50 (μm), Laboratory strain RF, subtype B, MT-2, co-receptor R5X4",7300 ± 600 nM
same,IC50,"[4]; read-out: IC50 (μm), Laboratory strain BaL, subtype B, PBMC, co-receptor R5",3700 ± 400 nM
same,IC50,"[4]; read-out: IC50 (μm), Primary isolate 93TH060, subtype E, PBMC, co-receptor R5",5500 ± 1200 nM
same,IC50,[2]; [9],1.7 ± 0.2 µM
same,IC50,[2]; [10],1.5 ± 0.9 µM
same,IC50,"[2]; Human immunodeficiency virus 1, TZM-bl, read-out: IC50 (μM) ± S.D., subtype A/G, NIH # 11602, ENV CRF02_AG clone 266",1.6 ± 0.5 µM
same,IC50,[2]; [11],1.1 ± 0.1 µM
same,IC50,[2]; [12],0.7 ± 0.2 µM
same,IC50,[2]; [13],1.7 ± 0.1 µM
same,IC50,"[2]; Human immunodeficiency virus 1, TZM-bl, read-out: IC50 (μM) ± S.D., subtype B, NIH # 11023, ENV TRO, clone 11",1.3 ± 0.2 µM
same,IC50,[2]; [14],1.8 ± 0.2 µM
same,IC50,[2]; [15],1.5 ± 0.3 µM
same,IC50,[2]; [16],1.4 ± 0.2 µM
same,IC50,[2]; [17],1.3 ± 0.2 µM
same,IC50,[2]; [18],4 ± 0.8 µM
same,IC50,"[2]; read-out: IC50 (μM) ± S.D., subtype B, NIH # 11058, ENV SC422661.8",0.6 ± 0.1 µM
same,IC50,"[2]; subtype A, ENV BG505-T332N, read-out: IC50 (μM) ± S.D.",2.4 ± 1 µM
same,IC50,"[2]; subtype D, NIH # 11912, ENV QA013.701.ENV.M12, read-out: IC50 (μM) ± S.D.",2.4 ± 0.2 µM
CC1(C)CC(NC(=O)C(=O)Nc2ccc(Cl)cc2)CC(C)(C)N1 [NBD-556],IC50,HIV-1 Integrase,> 200 µM
same,CC50,PBMC,> 280000 nM
same,CC50,MT-2 cells,> 280000 nM
same,IC50,[5],118000 nM
same,IC50,"[3]; Laboratory strain SF2, subtype B, MT-2, co-receptor R5X4, read-out: IC50 (μm)",118000 nM
